Consider 1 compound from ChEMBL document CHEMBL5338769, “Discovery of Norisoboldine Analogue III11 as a Novel and Potent Aryl Hydrocarbon Receptor Agonist for the Treatment of Ulcerative Colitis” (J Med Chem, 2023).

A short description of data set [1]: Apparent oral clearance in Sprague-Dawley rat at 3 mg/kg, iv measured upto 1440 min by LC-MS/MS analysis. The data set is classed as ADME, organism-based. As to conditions: in vivo, 24 h.
For data set [2], the system named is Mus musculus. The data set can be described thus: Anti-colitis activity against DSS-induced ulcerative colitis C57BL/6 mouse model assessed as increase in Foxp3 mRNA level by measuring fold change at 10 mg/kg, po administered once a day for 10 days by qRT-PCR analysis. It counts as functional. As to conditions: time 10 day. A general note: In qPCR the cycle at which signal appears reflects the starting amount.

The target in data set [3] is T1, Aryl hydrocarbon receptor (Mus musculus, UniProt P30561).
T1 sequence (P30561 whole entry): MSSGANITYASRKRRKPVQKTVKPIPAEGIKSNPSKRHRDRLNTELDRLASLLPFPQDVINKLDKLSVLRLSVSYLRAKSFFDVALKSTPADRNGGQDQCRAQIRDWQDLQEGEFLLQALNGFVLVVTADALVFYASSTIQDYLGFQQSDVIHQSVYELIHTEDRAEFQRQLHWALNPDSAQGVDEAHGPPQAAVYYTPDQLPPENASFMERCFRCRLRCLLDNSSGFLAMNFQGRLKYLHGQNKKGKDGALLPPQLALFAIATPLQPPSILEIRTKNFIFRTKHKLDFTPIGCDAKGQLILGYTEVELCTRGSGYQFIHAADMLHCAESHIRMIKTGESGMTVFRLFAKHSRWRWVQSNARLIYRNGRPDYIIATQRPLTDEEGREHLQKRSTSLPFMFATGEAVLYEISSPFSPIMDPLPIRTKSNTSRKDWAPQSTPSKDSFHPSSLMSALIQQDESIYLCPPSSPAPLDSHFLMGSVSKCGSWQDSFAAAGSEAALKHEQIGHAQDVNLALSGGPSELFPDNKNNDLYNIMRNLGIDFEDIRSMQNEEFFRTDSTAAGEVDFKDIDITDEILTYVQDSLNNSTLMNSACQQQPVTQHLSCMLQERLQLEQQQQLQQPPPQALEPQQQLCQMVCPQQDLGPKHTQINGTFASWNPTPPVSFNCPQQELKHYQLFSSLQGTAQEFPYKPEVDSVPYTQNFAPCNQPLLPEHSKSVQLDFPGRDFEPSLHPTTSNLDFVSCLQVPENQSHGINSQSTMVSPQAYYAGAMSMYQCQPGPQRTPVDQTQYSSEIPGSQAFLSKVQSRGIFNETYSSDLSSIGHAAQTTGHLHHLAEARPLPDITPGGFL
The data set is described as follows: Binding affinity to AhR in mouse EL4 cells assessed as thermal stabilization at 3 uM at 37 to 67 degreeC incubated for 24 hrs thermal shift assay based Western blot analysis. It counts as cell-based. To be noted: el4, 24 h. On the technique in general: A western blot detects proteins with antibodies after separation by electrophoresis.

For data set [4], the system named is Mus musculus. The data set is described as follows: Anti-colitis activity against DSS-induced ulcerative colitis C57BL/6 mouse model assessed as amelioration of epithelial change score by measuring erosion in colon at 10 to 20 mg/kg, po administered once a day for 10 days by H&E staining based histopathological analysis. As to conditions: dose 10-20 mg/kg, time 10.0 day. It counts as functional, organism-based.

Data set [5] concerns the target T1, Aryl hydrocarbon receptor. The data set can be described thus: Activation of AhR transcription in C57BL/6 mouse naive T cells assessed as increase in CYP1B1 mRNA expression at 1 to 3 uM by qRT-PCR analysis. The data set is classed as cell-based. To be noted: t cell, dose 1-3 µM.
Data set [6] deals with Mus musculus. The data set is described as follows: Anti-colitis activity against DSS-induced ulcerative colitis C57BL/6 mouse model assessed as amelioration of epithelial change score by measuring cryptitis in colon at 10 to 20 mg/kg, po administered once a day for 10 days by H&E staining based histopathological analysis. It counts as functional, organism-based. As to conditions: dose 10-20 mg/kg, time 10.0 day.

Data set [7] has as its system Mus musculus. The data set is described as follows: Anti-colitis activity in DSS-induced ulcerative colitis C57BL/6 mouse model assessed as increase in CD4+CD25+Foxp3+ Treg cell ratio in mesenteric lymph nodes at 20 mg/kg, po administered once a day for 10 days by flow cytometric analysis (reference value: 4.5 %). The data set is classed as functional. To be noted: time 10 day. (In general: A flow cytometer gives signals particle by particle.)

Data set [8] has as its system Mus musculus. The data set can be described thus: Anti-colitis activity against DSS-induced ulcerative colitis C57BL/6 mouse model assessed as amelioration of mucosal architecture score by measuring ulceration in colon at 10 to 20 mg/kg, po administered once a day for 10 days by H&E staining based histopathological analysis. The data set is classed as functional, organism-based. To be noted: dose 10-20 mg/kg, time 10.0 day.

Data set [9] deals with Mus musculus. The data set can be described thus: Anti-colitis activity against DSS-induced ulcerative colitis C57BL/6 mouse model assessed as decrease in colon MPO activity at 10 to 20 mg/kg, po administered once a day for 10 days. It counts as functional, organism-based. As to conditions: dose 10-20 mg/kg, time 10.0 day.
Data set [10] is described as follows: Protein binding in rat plasma at 48.02 ug/ml of total concentration measured after 12 hrs by ultrafiltration based HPLC analysis. The data set is classed as ADME, cell-free. As to conditions: at 48.02 µg/mL, read-out: PPB (converted).
The target in data set [11] is T1, Aryl hydrocarbon receptor. The data set can be described thus: Activation of AhR transcription in C57BL/6 mouse naive T cells assessed as increase in UGT1A1 mRNA expression at 1 to 3 uM by qRT-PCR analysis. It counts as cell-based. As to conditions: t cell, dose 1-3 µM.
Data set [12] relates to Mus musculus. The data set is described as follows: Anti-colitis activity against DSS-induced ulcerative colitis C57BL/6 mouse model assessed as amelioration of epithelial change score by measuring hyperplasia in colon at 10 to 20 mg/kg, po administered once a day for 10 days by H&E staining based histopathological analysis. It counts as functional, organism-based. To be noted: dose 10-20 mg/kg, time 10.0 day.

Data set [13] can be described thus: Half-life in Sprague-Dawley rat at 30 mg/kg, po measured upto 1440 min by LC-MS/MS analysis. The data set is classed as ADME, organism-based. As to conditions: in vivo.
Data set [14] is described as follows: Unbound drug concentration in rat plasma at 21.67 ug/ml of total concentration measured after 12 hrs by ultrafiltration based HPLC analysis. The data set is classed as ADME, cell-free. As to conditions: dose 21.67 µg/ml.
Data set [15] is described as follows: Induction of cell differentiation in C57BL/6 mouse naive regulatory T cells assessed as increase in cell frequency at 0.3 uM incubated for 72 hrs by flow cytometric analysis (reference value: 24.9%). It counts as functional.
Data set [16] concerns Mus musculus. The data set is described as follows: In vivo activation of AhR in C57BL/6 mouse assessed as increase in CYP1A1 mRNA expression at 10 to 20 mg/kg, po administered once a day for 10 days by qRT-PCR analysis. The data set is classed as functional, organism-based. To be noted: dose 10-20 mg/kg, time 10.0 day.
Data set [17] in a line: Oral bioavailability in Sprague-Dawley rat at 30 mg/kg measured upto 1440 min by LC-MS/MS analysis. To be noted: in vivo. The data set is classed as ADME, organism-based.
A short description of data set [18]: Induction of cell differentiation in C57BL/6 mouse naive regulatory T cells assessed as increase in cell frequency at 3 uM incubated for 72 hrs by flow cytometric analysis (reference value: 24.9%). The data set is classed as functional.
Data set [19] can be described thus: Cmax in Sprague-Dawley rat at 30 mg/kg, po measured at 120 min by LC-MS/MS analysis. The data set is classed as ADME, organism-based. Details: dose 30 mg/kg, time 120 min, route po. To be noted: in vivo.
Data set [20] has as its target T1, Aryl hydrocarbon receptor. The data set is described as follows: Induction of AhR nuclear translocation in C57BL/6 mouse naive T cells at 1 to 10 uM incubated for 48 hrs by immunofluorescence based inverted microscopic analysis. As to conditions: t cell, dose 1-10 µM.
Data set [21] is described as follows: Tmax in Sprague-Dawley rat at 30 mg/kg, po measured upto 1440 min by LC-MS/MS analysis. It counts as ADME, organism-based. As to conditions: in vivo.
Data set [22] is described as follows: Unbound drug concentration in rat plasma at 10.74 ug/ml of total concentration measured after 12 hrs by ultrafiltration based HPLC analysis. To be noted: dose 10.74 µg/ml. It counts as ADME, cell-free.
For the next data set, the system named is EL4. The data set can be described thus: Cytotoxicity against mouse EL4 cells assessed as reduction of cell vaibility at 10 uM incubated for 72 hrs by MTT assay. It counts as functional, cell-based.
The nature of data set [23]: Induction of cell differentiation in C57BL/6 mouse naive regulatory T cells assessed as increase in IL-10 mRNA level by measuring fold change at 3 uM incubated for 72 hrs by qRT-PCR analysis. The data set is classed as functional.

Broadly, the half-life is the time needed for the level to fall by half in the phase considered. Low readings indicate rapid decline, high ones slow decline. The bioavailability is dose-corrected exposure relative to a reference, in per cent. High values mean good availability, low ones poor availability. As a reminder, the Cmax is the maximum level reached in the sampled fluid or tissue. The term Tmax denotes the time from dosing to the highest level.

Activity calls are given as the source filed them.

On to `COc1cc2c3c(c1)-c1ccc(O)cc1CC3NCC2` (centres undefined), for which the CL/F in data set [1] is on record as 0.01 mg/(ng/ml)/min. Moreover, the “fold change (FC)” value with Mus musculus [2] turned out to be 1.88; in data set [23], 2.4. Further, the Activity entry in [3] was “Active”; in [5], “Active”; in the data set with Mus musculus [7], 8.5%; in [11], “Active”; in [15] it was 26.7%; in data set [18], 35.4%. Further, the outcome in [20] was Active. Also, the outcome with Mus musculus [4], in the data set with Mus musculus [6], in the data set with Mus musculus [8], in the data set with Mus musculus [9], in the data set with Mus musculus [12] and in the data set with Mus musculus [16] was Active. For the same compound, the fraction unbound at 12 h, 48.02 ug/ml in data set [10] was 0.139. In addition, the half-life in data set [13] is 2.69 h. Besides, the “Cp(f)” value was 3.23 µg/mL in [14] and 1.44 µg/mL in [22]. In data set [17], this compound gave a bioavailability of 87.4%. Also, in [19], the Cmax is 0.789 µg/mL. In data set [21], the Tmax is 2 h. Besides, the result in the data set on EL4 was inactive.
